According to ChEMBL document CHEMBL1201862, “PubChem BioAssay data set” (2004):
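96-well plates; 48 h exposure; 5 concentrations. Endpoints by linear interpolation between flanking doses. Not reached: highest tested concentration assigned. At the GI50, growth is halved.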 The source made the active and inactive calls. Cut-off read from the data, not from the text of the source: active = GI50 up to about 1.1 µM and inactive = higher.

Key:
Experiment in all cases: growth of human tumour cells (NCI), 48 h
T47D = system: T47D
MDA-N = system: MDA-N
UO-31 = system: UO-31
OVCAR-8 = system: OVCAR-8
SK-OV-3 = system: SK-OV-3
MDA-MB-231 = system: MDA-MB-231
COLO 205 = system: COLO 205
A549 = system: A549
DU-145 = system: DU-145
HCT-116 = system: HCT-116
HCC 2998 = system: HCC 2998
M14 = system: M14
SN12C = system: SN12C
NCI/ADR-RES = system: NCI/ADR-RES
Malme-3M = system: Malme-3M
OVCAR-3 = system: OVCAR-3
OVCAR-5 = system: OVCAR-5
SF-268 = system: SF-268
CAKI-1 = system: CAKI-1
PC-3 = system: PC-3

Measured: GI50

CC(=O)NC(CS)C(=O)O (stereo not given)
inactive: T47D 26900 µM | MDA-N > 100 µM | UO-31 7640 µM | OVCAR-8 24700 µM | SK-OV-3 44200 µM | MDA-MB-231 11300 µM | COLO 205 14600 µM | A549 15700 µM | DU-145 21400 µM | HCT-116 17600 µM | HCC 2998 20700 µM | M14 7360 µM | SN12C 26300 µM | NCI/ADR-RES 22600 µM | Malme-3M 8220 µM | OVCAR-3 16800 µM | OVCAR-5 14500 µM | SF-268 20900 µM | CAKI-1 6030 µM | PC-3 33200 µM

O=C(NC(=O)c1c(F)cccc1F)Nc1cccc(Oc2ncc(Cl)cn2)c1
inactive: T47D > 35.2 µM | MDA-N 1.56 µM | UO-31 > 100 µM | OVCAR-8 43 µM | SK-OV-3 19.3 µM | MDA-MB-231 > 71.6 µM | COLO 205 3.85 µM | A549 > 39.9 µM | DU-145 > 100 µM | HCT-116 8.79 µM | HCC 2998 4.73 µM | M14 > 51.2 µM | SN12C 45.1 µM | NCI/ADR-RES > 23.3 µM | Malme-3M > 68.4 µM | OVCAR-3 40.4 µM | OVCAR-5 > 100 µM | SF-268 36.5 µM | CAKI-1 30 µM | PC-3 > 100 µM

Cc1n[nH]c(=O)n1/N=C/c1cccs1
inactive: T47D > 100 µM | MDA-N > 100 µM | UO-31 > 100 µM | OVCAR-8 > 100 µM | SK-OV-3 > 100 µM | MDA-MB-231 > 100 µM | COLO 205 > 100 µM | A549 > 100 µM | DU-145 > 100 µM | HCT-116 > 100 µM | HCC 2998 > 100 µM | M14 > 100 µM | SN12C > 100 µM | NCI/ADR-RES > 100 µM | Malme-3M > 100 µM | OVCAR-3 > 100 µM | OVCAR-5 > 100 µM | SF-268 > 100 µM | CAKI-1 > 100 µM | PC-3 > 100 µM

CCOC(=O)CCC(NC(=O)c1ccc(Oc2nc3ccc(C(F)(F)F)cc3nc2-c2ccccc2)cc1)C(=O)OCC (stereo not given)
inactive: T47D > 42.2 µM | MDA-N > 100 µM | UO-31 20.6 µM | OVCAR-8 9.06 µM | SK-OV-3 15 µM | MDA-MB-231 8.13 µM | COLO 205 > 100 µM | A549 24.2 µM | DU-145 > 100 µM | HCT-116 25.6 µM | HCC 2998 > 100 µM | M14 67.6 µM | SN12C > 50.7 µM | NCI/ADR-RES 15.5 µM | Malme-3M 14.2 µM | OVCAR-3 30.8 µM | OVCAR-5 > 68.7 µM | SF-268 6.55 µM | CAKI-1 7.19 µM | PC-3 > 58.3 µM

CCOP(=O)(OCC)/C(C#N)=C(\C)c1ccco1
inactive: T47D > 10 µM | MDA-N > 10 µM | UO-31 > 10 µM | OVCAR-8 > 10 µM | SK-OV-3 > 10 µM | MDA-MB-231 > 10 µM | COLO 205 > 10 µM | A549 > 10 µM | DU-145 > 10 µM | HCT-116 > 10 µM | HCC 2998 > 10 µM | M14 > 10 µM | SN12C > 10 µM | NCI/ADR-RES > 10 µM | Malme-3M > 10 µM | OVCAR-3 > 10 µM | OVCAR-5 > 10 µM | SF-268 > 10 µM | CAKI-1 > 10 µM | PC-3 > 10 µM

S=C(Nc1cccc(C2(N3CCCCC3)CCCCC2)c1)Nc1cccc(C2(N3CCCCC3)CCCCC2)c1
inactive: T47D 19.5 µM | MDA-N 17.6 µM | UO-31 16.9 µM | OVCAR-8 24.3 µM | SK-OV-3 > 100 µM | MDA-MB-231 15.6 µM | COLO 205 17.1 µM | A549 31.6 µM | DU-145 27.3 µM | HCT-116 20.8 µM | HCC 2998 2.43 µM | M14 18.7 µM | SN12C 31.6 µM | NCI/ADR-RES > 100 µM | Malme-3M 20.7 µM | OVCAR-3 21.8 µM | OVCAR-5 66.4 µM | SF-268 36.8 µM | CAKI-1 42 µM | PC-3 26.9 µM

COc1ccc2cc(-c3nc(N)nc(N4N=C(C)CC4(C)C)n3)c(=N)oc2c1
inactive: T47D 15.4 µM | MDA-N 17.1 µM | UO-31 21.5 µM | OVCAR-8 23 µM | SK-OV-3 23.6 µM | MDA-MB-231 18.8 µM | COLO 205 16.6 µM | A549 24.9 µM | DU-145 15.8 µM | HCT-116 19.1 µM | HCC 2998 17.9 µM | M14 21.5 µM | SN12C 20.2 µM | NCI/ADR-RES 31.4 µM | Malme-3M 16.5 µM | OVCAR-3 15.2 µM | OVCAR-5 18.7 µM | SF-268 16.9 µM | CAKI-1 17.5 µM | PC-3 16.8 µM

NCCCCNC1(c2cc3ccccc3s2)CCCCC1
inactive: T47D 2.29 µM | MDA-N 1.71 µM | UO-31 2.56 µM | OVCAR-8 7.06 µM | SK-OV-3 14.5 µM | MDA-MB-231 3.22 µM | COLO 205 1.74 µM | A549 5.96 µM | DU-145 11.1 µM | HCT-116 3.65 µM | HCC 2998 1.65 µM | M14 1.98 µM | SN12C 12.2 µM | NCI/ADR-RES 6.9 µM | Malme-3M 1.88 µM | OVCAR-3 2.78 µM | OVCAR-5 3.77 µM | SF-268 6.24 µM | CAKI-1 14.8 µM | PC-3 4.9 µM

CCOc1cc2oc(C)cc(=O)c2c(OC)c1/C=N/c1ccc(Cn2c(C)nc3ccccc32)cc1
inactive: T47D > 100 µM | MDA-N > 100 µM | UO-31 > 100 µM | OVCAR-8 > 100 µM | SK-OV-3 > 100 µM | MDA-MB-231 > 100 µM | COLO 205 > 100 µM | A549 > 100 µM | DU-145 > 100 µM | HCT-116 > 100 µM | HCC 2998 > 100 µM | M14 > 100 µM | SN12C > 100 µM | NCI/ADR-RES > 100 µM | Malme-3M > 100 µM | OVCAR-3 > 100 µM | OVCAR-5 > 100 µM | SF-268 > 100 µM | CAKI-1 > 100 µM | PC-3 > 100 µM

Cc1cc(N(CCC#N)CCC#N)ccc1C(/N=N/c1ccc(Cl)cc1)=N\NC(=O)c1cc(Cl)ccc1O
inactive: T47D 31.6 µM | MDA-N > 100 µM | UO-31 64.4 µM | OVCAR-8 35.6 µM | SK-OV-3 34.8 µM | MDA-MB-231 30.8 µM | COLO 205 47.9 µM | A549 31.3 µM | DU-145 > 100 µM | HCT-116 71.4 µM | HCC 2998 29.9 µM | M14 > 100 µM | SN12C 70.5 µM | NCI/ADR-RES 52.8 µM | Malme-3M 62.7 µM | OVCAR-3 19.1 µM | OVCAR-5 > 100 µM | SF-268 27.7 µM | CAKI-1 > 100 µM | PC-3 35.2 µM
